The values that follow come from PubChem BioAssay AID248 (DTP/NCI, 2004).

Each structure is given as a SMILES string. Inconclusive results and toxic doses are left out.

This assay concerns L1210 leukemia ip in BDF1 mice, survival T/C. Briefly: NCI In Vivo Anticancer Drug Screen. Data for tumor model L1210 Leukemia (intraperitoneal) in B6D2F1 (BDF1) mice. To be noted: endpoint: mean survival time, higher = longer survival. An outline of the steps:
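Transplantable tumor model; survival measured in treated vs vehicle control mice. Value = treated/control.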

Setting [1] is: dose: 50.0 mg/kg/injection, schedule: Q01DX009 (ip), vehicle: saline.
Setting [2] is: dose: 100.0 mg/kg/injection, schedule: Q01DX009 (ip), vehicle: saline.
The mark [3] stands for this setting: dose: 25.0 mg/kg/injection, schedule: Q01DX009 (ip), vehicle: saline with Tween-80.
Where [4] appears, read: dose: 50.0 mg/kg/injection, schedule: Q01DX009 (ip), vehicle: saline with Tween-80.
The mark [5] stands for this setting: dose: 100.0 mg/kg/injection, schedule: Q01DX009 (ip), vehicle: saline with Tween-80.
Where [6] appears, read: dose: 100.0 mg/kg/injection, schedule: Q04DX003 (ip), vehicle: saline with Tween-80.
The mark [7] stands for this setting: dose: 100.0 mg/kg/injection, schedule: Q04DX003 (ip), vehicle: Klucel (hydroxypropylcellulose) (HPC).
[8] abbreviates: dose: 200.0 mg/kg/injection, schedule: Q04DX003 (ip), vehicle: Klucel (hydroxypropylcellulose) (HPC).
The mark [9] stands for this setting: dose: 400.0 mg/kg/injection, schedule: Q04DX003 (ip), vehicle: Klucel (hydroxypropylcellulose) (HPC).
The mark [10] stands for this setting: dose: 100.0 mg/kg/injection, schedule: Q01DX009 (ip), vehicle: Klucel (hydroxypropylcellulose) (HPC).
[11] abbreviates: dose: 200.0 mg/kg/injection, schedule: Q01DX009 (ip), vehicle: Klucel (hydroxypropylcellulose) (HPC).
Where [12] appears, read: dose: 400.0 mg/kg/injection, schedule: Q01DX009 (ip), vehicle: Klucel (hydroxypropylcellulose) (HPC).
[13] abbreviates: dose: 100.0 mg/kg/injection, schedule: Q01DX001 (ip), vehicle: carboxymethylcellulose (CMC).
The mark [14] stands for this setting: dose: 200.0 mg/kg/injection, schedule: Q01DX001 (ip), vehicle: carboxymethylcellulose (CMC).
[15] abbreviates: dose: 100.0 mg/kg/injection, schedule: Q04DX003 (ip), vehicle: saline.

On to `CC12C=CC(O1)C1C(=O)OC(=O)C12` (centres undefined), for which the T/C runs as follows: under setting [1], 91 % of control; (dose: 75.0 mg/kg/injection, schedule: Q01DX001 (ip), vehicle: other) 96 % of control; under setting [2], 100 % of control; (dose: 150.0 mg/kg/injection, schedule: Q01DX001 (ip), vehicle: other) 98 % of control; (dose: 200.0 mg/kg/injection, schedule: Q01DX009 (ip), vehicle: saline) 88 % of control.

In the case of `CCOCCC(=O)NCc1ccccc1`, the T/C is, setting by setting: (dose: 100.0 mg/kg/injection, schedule: Q01DX001 (ip), vehicle: saline with Tween-80) 100 % of control; (dose: 200.0 mg/kg/injection, schedule: Q01DX001 (ip), vehicle: saline with Tween-80) 104 % of control; (dose: 400.0 mg/kg/injection, schedule: Q01DX001 (ip), vehicle: saline with Tween-80) 106 % of control.

As for `Nc1nc(-c2ccccc2)cs1`, the T/C runs as follows: under setting [3], 106 % of control; (dose: 25.0 mg/kg/injection, schedule: Q04DX003 (ip), vehicle: saline with Tween-80) 100 % of control; under setting [4], 108 % of control; (dose: 50.0 mg/kg/injection, schedule: Q04DX003 (ip), vehicle: saline with Tween-80) 92 % of control; under setting [5], 106 % of control; under setting [6], 92 % of control.

As for `Cc1cn2c(nc1=O)OC1CC2OC1CO` (centres undefined), the T/C runs as follows: (dose: 100.0 mg/kg/injection, schedule: Q01DX005 (ip), vehicle: saline) 122 % of control; (dose: 200.0 mg/kg/injection, schedule: Q01DX005 (ip), vehicle: saline) 152 % of control.

With `O=C(N/N=C/c1ccccc1)c1cc([N+](=O)[O-])cc([N+](=O)[O-])c1`, the T/C reads like this: under setting [7], 90 % of control; under setting [8], 108 % of control; under setting [9], 101 % of control.

As to `CCC(=O)Nc1ccccc1Cl`, the T/C is, setting by setting: under setting [5], 97 % of control; (dose: 200.0 mg/kg/injection, schedule: Q01DX009 (ip), vehicle: saline with Tween-80) 98 % of control; (dose: 400.0 mg/kg/injection, schedule: Q01DX009 (ip), vehicle: saline with Tween-80) 101 % of control.

As to `Cc1cc(Cl)ccc1NC(=O)Nc1ccccc1`, the T/C was 87 % of control (dose: 100.0 mg/kg/injection, schedule: Q01DX009 (ip), vehicle: gum acacia); 87 % of control (dose: 100.0 mg/kg/injection, schedule: Q04DX003 (ip), vehicle: gum acacia); 89 % of control (dose: 200.0 mg/kg/injection, schedule: Q01DX009 (ip), vehicle: gum acacia); 89 % of control (dose: 200.0 mg/kg/injection, schedule: Q04DX003 (ip), vehicle: gum acacia); 87 % of control (dose: 400.0 mg/kg/injection, schedule: Q01DX009 (ip), vehicle: gum acacia); 90 % of control (dose: 400.0 mg/kg/injection, schedule: Q04DX003 (ip), vehicle: gum acacia).

`Cc1cc(CS)c(CS)cc1C`: the T/C is, setting by setting: under setting [10], 100 % of control; under setting [7], 96 % of control; under setting [11], 103 % of control; under setting [8], 93 % of control; under setting [12], 102 % of control; under setting [9], 94 % of control.

For `C=CC1(C)CCC2C(=CCC3C(C)(C(=O)O)CCCC23C)C1` (centres undefined) (tested in a mixture with another compound), the T/C by setting is: under setting [13], 104 % of control; under setting [14], 95 % of control; (dose: 400.0 mg/kg/injection, schedule: Q01DX001 (ip), vehicle: carboxymethylcellulose (CMC)) 95 % of control.

In the case of `CC(=O)OCC(OC(C)=O)C(OC(C)=O)C(OC(C)=O)C(OC(C)=O)C(C=O)OC(C)=O` (centres undefined), the T/C is 92 % of control under setting [6]; 95 % of control (dose: 200.0 mg/kg/injection, schedule: Q04DX003 (ip), vehicle: saline with Tween-80); 106 % of control (dose: 400.0 mg/kg/injection, schedule: Q04DX003 (ip), vehicle: saline with Tween-80).

In the case of `O=[N+]([O-])c1ccccc1N=Nc1c(O)[nH]c2cccc(C(F)(F)F)c12`, the T/C (dose: 100.0 mg/kg/injection, schedule: Q01DX001 (ip), vehicle: acetone) was 97 % of control; the T/C (dose: 100.0 mg/kg/injection, schedule: Q01DX001 (ip), vehicle: saline) is 103 % of control; the T/C (dose: 200.0 mg/kg/injection, schedule: Q01DX001 (ip), vehicle: acetone) is 97 % of control; the T/C (dose: 400.0 mg/kg/injection, schedule: Q01DX001 (ip), vehicle: acetone) was 97 % of control; the T/C (dose: 400.0 mg/kg/injection, schedule: Q01DX001 (ip), vehicle: saline) was 87 % of control.

In the case of `COc1ccc(Nc2nc(N)nc(N)c2N)cc1`, the T/C (dose: 100.0 mg/kg/injection, schedule: Q01DX Z (ip), vehicle: saline) was 87 % of control.

For the compound `S=C(NCc1ccco1)Nc1ccccc1Cl`, the T/C runs as follows: under setting [10], 100 % of control; under setting [11], 93 % of control.

For `Cc1cc(C(=O)O)ccc1Cl`, the T/C is 101 % of control (dose: 100.0 mg/kg/injection, schedule: Q04DX003 (ip), vehicle: other); 101 % of control (dose: 200.0 mg/kg/injection, schedule: Q04DX003 (ip), vehicle: other); 103 % of control (dose: 400.0 mg/kg/injection, schedule: Q04DX003 (ip), vehicle: other).

On to `CNC(=O)c1cccc2c1-c1ccccc1C2=O`, for which the T/C was 91 % of control (dose: 100.0 mg/kg/injection, schedule: Q01DX001 (ip), vehicle: other); 91 % of control (dose: 200.0 mg/kg/injection, schedule: Q01DX001 (ip), vehicle: other); 91 % of control (dose: 400.0 mg/kg/injection, schedule: Q01DX001 (ip), vehicle: other).

Regarding `CC/[N+]([O-])=C/c1ncc([N+](=O)[O-])n1C`, the T/C by setting is: (dose: 100.0 mg/kg/injection, schedule: Q04DX002 (ip), vehicle: saline) 114 % of control; (dose: 200.0 mg/kg/injection, schedule: Q04DX002 (ip), vehicle: saline) 118 % of control; (dose: 400.0 mg/kg/injection, schedule: Q04DX002 (ip), vehicle: saline) 114 % of control.

For the compound `CCN=C1N[N+]2=CCCCC2S1` (centres undefined), the T/C (dose: 50.0 mg/kg/injection, schedule: Q04DX003 (ip), vehicle: saline) is 103 % of control and the T/C under setting [15] was 109 % of control.

Consider `CCNC(=S)Nc1ccc(Cl)cc1`, for which the T/C is, setting by setting: under setting [3], 93 % of control; under setting [4], 95 % of control; under setting [5], 97 % of control; under setting [6], 104 % of control.

For `Nc1nc2ncc(CCCNc3ccc(C(=O)NC(CCC(=O)O)C(=O)O)cc3)nc2c(=O)[nH]1` (centres undefined), the T/C (dose: 50.0 mg/kg/injection, schedule: Q01DX001 (ip), vehicle: carboxymethylcellulose (CMC)) was 94 % of control; the T/C under setting [13] is 108 % of control; the T/C under setting [14] is 94 % of control.

As to `O=C1c2ccccc2C(=O)c2c(Nc3ccc(CCO)cc3)ccc(O)c21`, the T/C runs as follows: under setting [10], 103 % of control; under setting [7], 102 % of control; under setting [11], 97 % of control; under setting [8], 100 % of control; under setting [12], 101 % of control; under setting [9], 102 % of control.

`Cc1ccc(C)n1CCn1c(C)ccc1C`: the T/C under setting [10] is 91 % of control; the T/C (dose: 100.0 mg/kg/injection, schedule: Q04DX002 (ip), vehicle: Klucel (hydroxypropylcellulose) (HPC)) was 88 % of control; the T/C under setting [11] is 94 % of control; the T/C (dose: 200.0 mg/kg/injection, schedule: Q04DX002 (ip), vehicle: Klucel (hydroxypropylcellulose) (HPC)) is 93 % of control; the T/C under setting [12] is 91 % of control; the T/C (dose: 400.0 mg/kg/injection, schedule: Q04DX002 (ip), vehicle: Klucel (hydroxypropylcellulose) (HPC)) is 96 % of control.

Regarding `CC(=O)C(C)=P(c1ccccc1)(c1ccccc1)c1ccccc1`, the T/C reads like this: (dose: 25.0 mg/kg/injection, schedule: Q01DX009 (ip), vehicle: saline) 101 % of control; under setting [1], 102 % of control; under setting [2], 96 % of control; under setting [15], 98 % of control; (dose: 200.0 mg/kg/injection, schedule: Q04DX003 (ip), vehicle: saline) 88 % of control; (dose: 400.0 mg/kg/injection, schedule: Q04DX003 (ip), vehicle: saline) 88 % of control.
